Values after ≈ are worked out from the molar mass of the structure shown.
system: Candida albicans; assay: Antifungal activity against fluconazole-resistant Candida albicans TIMM3164; assay type: functional; settings: not given

Compared with `C[C@@H](S[C@H]1CO[C@H](/C=C/C(=O)c2ccc(F)cc2)OC1)[C@](O)(Cn1cncn1)c1ccc(F)cc1F.O=C(O)/C=C\C(=O)O`, `C[C@@H](S[C@H]1CO[C@H](c2ccc(C(=O)Nc3ccc(F)cc3)cc2)OC1)[C@](O)(Cn1cncn1)c1ccc(F)cc1F` is 7.8-fold lower in MIC: 0.125 µg/mL for the first, 0.016 µg/mL (≈ 0.0274 µM) for the second.

First: OC(Cn1cncn1)(Cn1cncn1)c1ccc(F)cc1F [FLUCONAZOLE]
Second: Cc1ccc(NC(=O)c2ccc([C@H]3OC[C@H](S[C@H](C)[C@](O)(Cn4cncn4)c4ccc(F)cc4F)CO3)cc2)cc1
The MIC of the first is higher: over 4 µg/mL for the first, 0.016 µg/mL (≈ 0.0276 µM) for the second.

First: C[C@@H](S[C@H]1CO[C@H](c2ccc(C(=O)Nc3ccc(C#N)cc3F)cc2)OC1)[C@](O)(Cn1cncn1)c1ccc(F)cc1F
Second: C[C@@H](S[C@H]1CO[C@H](c2ccc(C(=O)Nc3ccc(C#N)cc3)cc2F)OC1)[C@](O)(Cn1cncn1)c1ccc(F)cc1F
The MIC of the first is 1.9-fold lower: 0.016 µg/mL (≈ 0.0262 µM) for the first, 0.031 µg/mL (≈ 0.0509 µM) for the second.

system: Pichia kudriavzevii; assay: Antifungal activity against Candida krusei ATCC 6258; assay type: functional; settings: not given

`OC(Cn1cncn1)(Cn1cncn1)c1ccc(F)cc1F` [FLUCONAZOLE] gave an MIC of over 4 µg/mL.

system: Aspergillus fumigatus; assay: Antifungal activity against Aspergillus fumigatus ATCC 26430; assay type: functional; settings: not given

With `OC(Cn1cncn1)(Cn1cncn1)c1ccc(F)cc1F` [FLUCONAZOLE] the MIC was over 4 µg/mL.

system: Candida albicans; assay: Antifungal activity against Candida albicans ATCC 24433; assay type: functional; settings: not given

`OC(Cn1cncn1)(Cn1cncn1)c1ccc(F)cc1F` [FLUCONAZOLE] showed an MIC of 0.5 µg/mL (≈ 1.63 µM).

system: Aspergillus flavus; assay: Antifungal activity against Aspergillus flavus SANK 18497; assay type: functional; settings: not given

Going from `C[C@@H](S[C@H]1CO[C@H](/C=C/C(=O)c2ccc(F)cc2)OC1)[C@](O)(Cn1cncn1)c1ccc(F)cc1F.O=C(O)/C=C\C(=O)O` to `C[C@@H](S[C@H]1CO[C@H](c2ccc(C(=O)Nc3ccc(F)cc3)cc2)OC1)[C@](O)(Cn1cncn1)c1ccc(F)cc1F`, the MIC falls from over 4 µg/mL to 0.25 µg/mL (≈ 0.428 µM).

Going from `OC(Cn1cncn1)(Cn1cncn1)c1ccc(F)cc1F` [FLUCONAZOLE] to `Cc1ccc(NC(=O)c2ccc([C@H]3OC[C@H](S[C@H](C)[C@](O)(Cn4cncn4)c4ccc(F)cc4F)CO3)cc2)cc1`, the MIC falls from over 4 µg/mL to 0.25 µg/mL (≈ 0.431 µM).

Compared with `C[C@@H](S[C@H]1CO[C@H](c2ccc(C(=O)Nc3ccc(C#N)cc3F)cc2)OC1)[C@](O)(Cn1cncn1)c1ccc(F)cc1F`, `C[C@@H](S[C@H]1CO[C@H](c2ccc(C(=O)Nc3ccc(C#N)cc3)cc2F)OC1)[C@](O)(Cn1cncn1)c1ccc(F)cc1F` is 2-fold higher in MIC: 0.125 µg/mL (≈ 0.205 µM) for the first, 0.25 µg/mL (≈ 0.41 µM) for the second.

system: Candida albicans; assay: Antifungal activity against Candida albicans SANK 51486; assay type: functional; settings: not given

`C[C@@H](S[C@H]1CO[C@H](/C=C/C(=O)c2ccc(F)cc2)OC1)[C@](O)(Cn1cncn1)c1ccc(F)cc1F.O=C(O)/C=C\C(=O)O` and `C[C@@H](S[C@H]1CO[C@H](c2ccc(C(=O)Nc3ccc(F)cc3)cc2)OC1)[C@](O)(Cn1cncn1)c1ccc(F)cc1F` cannot be ordered by MIC: at most 0.008 µg/mL for the first, at most 0.008 µg/mL for the second.

First: OC(Cn1cncn1)(Cn1cncn1)c1ccc(F)cc1F [FLUCONAZOLE]
Second: Cc1ccc(NC(=O)c2ccc([C@H]3OC[C@H](S[C@H](C)[C@](O)(Cn4cncn4)c4ccc(F)cc4F)CO3)cc2)cc1
The MIC of the first is higher: 0.25 µg/mL (≈ 0.816 µM) for the first, at most 0.008 µg/mL for the second.

`C[C@@H](S[C@H]1CO[C@H](c2ccc(C(=O)Nc3ccc(C#N)cc3F)cc2)OC1)[C@](O)(Cn1cncn1)c1ccc(F)cc1F` and `C[C@@H](S[C@H]1CO[C@H](c2ccc(C(=O)Nc3ccc(C#N)cc3)cc2F)OC1)[C@](O)(Cn1cncn1)c1ccc(F)cc1F` cannot be ordered by MIC: at most 0.008 µg/mL for the first, at most 0.008 µg/mL for the second.

system: Cryptococcus neoformans; assay: Antifungal activity against Cryptococcus neoformans TIMM 1855; assay type: functional; settings: not given

First: C[C@@H](S[C@H]1CO[C@H](/C=C/C(=O)c2ccc(F)cc2)OC1)[C@](O)(Cn1cncn1)c1ccc(F)cc1F.O=C(O)/C=C\C(=O)O
Second: C[C@@H](S[C@H]1CO[C@H](c2ccc(C(=O)Nc3ccc(F)cc3)cc2)OC1)[C@](O)(Cn1cncn1)c1ccc(F)cc1F
The MIC of the first is 4-fold higher: 0.125 µg/mL for the first, 0.031 µg/mL (≈ 0.053 µM) for the second.

Compared with `OC(Cn1cncn1)(Cn1cncn1)c1ccc(F)cc1F` [FLUCONAZOLE], `Cc1ccc(NC(=O)c2ccc([C@H]3OC[C@H](S[C@H](C)[C@](O)(Cn4cncn4)c4ccc(F)cc4F)CO3)cc2)cc1` is lower in MIC: over 4 µg/mL for the first, 0.031 µg/mL (≈ 0.0534 µM) for the second.

Compared with `C[C@@H](S[C@H]1CO[C@H](c2ccc(C(=O)Nc3ccc(C#N)cc3F)cc2)OC1)[C@](O)(Cn1cncn1)c1ccc(F)cc1F`, `C[C@@H](S[C@H]1CO[C@H](c2ccc(C(=O)Nc3ccc(C#N)cc3)cc2F)OC1)[C@](O)(Cn1cncn1)c1ccc(F)cc1F` is 2-fold lower in MIC: 0.063 µg/mL (≈ 0.103 µM) for the first, 0.031 µg/mL (≈ 0.0509 µM) for the second.

system: Nakaseomyces glabratus; assay: Antifungal activity against Candida glabrata ATCC 90030; assay type: functional; settings: not given

Compared with `C[C@@H](S[C@H]1CO[C@H](/C=C/C(=O)c2ccc(F)cc2)OC1)[C@](O)(Cn1cncn1)c1ccc(F)cc1F.O=C(O)/C=C\C(=O)O`, `C[C@@H](S[C@H]1CO[C@H](c2ccc(C(=O)Nc3ccc(F)cc3)cc2)OC1)[C@](O)(Cn1cncn1)c1ccc(F)cc1F` is 2-fold higher in MIC: 1 µg/mL for the first, 2 µg/mL (≈ 3.42 µM) for the second.

Going from `OC(Cn1cncn1)(Cn1cncn1)c1ccc(F)cc1F` [FLUCONAZOLE] to `Cc1ccc(NC(=O)c2ccc([C@H]3OC[C@H](S[C@H](C)[C@](O)(Cn4cncn4)c4ccc(F)cc4F)CO3)cc2)cc1`, the MIC falls from over 4 µg/mL to 2 µg/mL (≈ 3.44 µM).

First: C[C@@H](S[C@H]1CO[C@H](c2ccc(C(=O)Nc3ccc(C#N)cc3F)cc2)OC1)[C@](O)(Cn1cncn1)c1ccc(F)cc1F
Second: C[C@@H](S[C@H]1CO[C@H](c2ccc(C(=O)Nc3ccc(C#N)cc3)cc2F)OC1)[C@](O)(Cn1cncn1)c1ccc(F)cc1F
The MIC of the first is higher: over 4 µg/mL for the first, 2 µg/mL (≈ 3.28 µM) for the second.

system: Candida tropicalis; assay: Antifungal activity against Candida tropicalis ATCC 750; assay type: functional; settings: not given

Compared with `C[C@@H](S[C@H]1CO[C@H](/C=C/C(=O)c2ccc(F)cc2)OC1)[C@](O)(Cn1cncn1)c1ccc(F)cc1F.O=C(O)/C=C\C(=O)O`, `C[C@@H](S[C@H]1CO[C@H](c2ccc(C(=O)Nc3ccc(F)cc3)cc2)OC1)[C@](O)(Cn1cncn1)c1ccc(F)cc1F` is 31-fold lower in MIC: 0.5 µg/mL for the first, 0.016 µg/mL (≈ 0.0274 µM) for the second.

First: OC(Cn1cncn1)(Cn1cncn1)c1ccc(F)cc1F [FLUCONAZOLE]
Second: Cc1ccc(NC(=O)c2ccc([C@H]3OC[C@H](S[C@H](C)[C@](O)(Cn4cncn4)c4ccc(F)cc4F)CO3)cc2)cc1
The MIC of the first is higher: 2 µg/mL (≈ 6.53 µM) for the first, at most 0.008 µg/mL for the second.

First: C[C@@H](S[C@H]1CO[C@H](c2ccc(C(=O)Nc3ccc(C#N)cc3F)cc2)OC1)[C@](O)(Cn1cncn1)c1ccc(F)cc1F
Second: C[C@@H](S[C@H]1CO[C@H](c2ccc(C(=O)Nc3ccc(C#N)cc3)cc2F)OC1)[C@](O)(Cn1cncn1)c1ccc(F)cc1F
The MIC of the first is higher: 0.031 µg/mL (≈ 0.0509 µM) for the first, at most 0.008 µg/mL for the second.

system: Candida albicans; assay: Antifungal activity against Candida albicans ATCC 64550; assay type: functional; settings: not given

With `OC(Cn1cncn1)(Cn1cncn1)c1ccc(F)cc1F` [FLUCONAZOLE] the MIC was over 4 µg/mL.

system: Aspergillus fumigatus; assay: Antifungal activity against Aspergillus fumigatus SANK 10569; assay type: functional; settings: not given

First: C[C@@H](S[C@H]1CO[C@H](/C=C/C(=O)c2ccc(F)cc2)OC1)[C@](O)(Cn1cncn1)c1ccc(F)cc1F.O=C(O)/C=C\C(=O)O
Second: C[C@@H](S[C@H]1CO[C@H](c2ccc(C(=O)Nc3ccc(F)cc3)cc2)OC1)[C@](O)(Cn1cncn1)c1ccc(F)cc1F
The MIC of the first is 8-fold higher: 1 µg/mL for the first, 0.125 µg/mL (≈ 0.214 µM) for the second.

Going from `OC(Cn1cncn1)(Cn1cncn1)c1ccc(F)cc1F` [FLUCONAZOLE] to `Cc1ccc(NC(=O)c2ccc([C@H]3OC[C@H](S[C@H](C)[C@](O)(Cn4cncn4)c4ccc(F)cc4F)CO3)cc2)cc1`, the MIC falls from over 4 µg/mL to 0.063 µg/mL (≈ 0.108 µM).

First: C[C@@H](S[C@H]1CO[C@H](c2ccc(C(=O)Nc3ccc(C#N)cc3F)cc2)OC1)[C@](O)(Cn1cncn1)c1ccc(F)cc1F
Second: C[C@@H](S[C@H]1CO[C@H](c2ccc(C(=O)Nc3ccc(C#N)cc3)cc2F)OC1)[C@](O)(Cn1cncn1)c1ccc(F)cc1F
The MIC of the first is 2-fold lower: 0.031 µg/mL (≈ 0.0509 µM) for the first, 0.063 µg/mL (≈ 0.103 µM) for the second.

system: Candida parapsilosis; assay: Antifungal activity against Candida parapsilosis ATCC 90018; assay type: functional; settings: Lodderomyces parapsilosis

For `OC(Cn1cncn1)(Cn1cncn1)c1ccc(F)cc1F` [FLUCONAZOLE], the MIC was 0.5 µg/mL (≈ 1.63 µM).

Reference: ChEMBL document CHEMBL1153358, “Amide analogs of antifungal dioxane-triazole derivatives: synthesis and in vitro activities” (Bioorg Med Chem Lett, 2009)
